Like-named read-outs stand apart in the source and are kept apart here.
Key:
[1] = target: AChE (electric eel) (Electrophorus electricus, UniProt O42275); assay: biochemical; details: for inhibition at 100 µM: read-out: AChE (%) percentage of inhibition
Method: (§1) The in vitro testing of ChEs inhibition was performed according to the modified Ellman’s method. […] The percentage of inhibition activity was defined for all compounds.
(§2) The in vitro testing of ChEs inhibition was performed on 96-well microplate reader, Synergy^TM HT, BioTek, Vinnoski, USA.
(§3) The method originally developed by Ellman was used with slight modifications. The measurement of AChE and BuChE inhibitory activity was performed in a 96-well microplate reader. 170 μL of 0.1 M phosphate buffer (pH 7.0), 20 μL of AChE (electric eel) or BuChE (equine serum) in phosphate solution (2.3 U/mL), 20 μL of the tested compound in methanol and 20 μL of 10 mM (5,5′-dithiobis(2-nitrobenzoic acid), DTNB, Ellman’s Reagent) were mixed and incubated at 37 °C for 15 min.
Then 20 μL of 7.5 mM acetylthiocholine iodide (ATCI)/butyrylthiocholine iodide (BTCI) were added. […] Each measurement was repeated five times (n = 5). There was prepared one set of mixtures as a control (Abscontrol), which contained an equal volume of methanol instead of the tested samples.
(§4) The percentage ability to inhibit AChE and BuChE at the concentration 100 µM was tested for all compounds. The inhibitory rates IR (%) were calculated according to the Equation (1). IR = [1 - (Abssample/Abscontrol)] × 100(1)

[2] = target: T1, BuChE (equine serum) (Equus caballus, UniProt P81908); assay: BuChE inhibition, modified Ellman's method; format: biochemical; details: for inhibition at 100 µM / BuChE (%) percentage of inhibition: mean ± SD (n = 5); for IC50: n = 3 per concentration
T1 construct: 20 μL of AChE (electric eel) or BuChE (equine serum) in phosphate solution (2.3 U/mL); from tissue; host or cells: equine serum
Method: as §1, §2, §3
Then 20 μL of 7.5 mM acetylthiocholine iodide (ATCI)/butyrylthiocholine iodide (BTCI) were added. […] […] There was prepared one set of mixtures as a control (Abscontrol), which contained an equal volume of methanol instead of the tested samples.
as §4
The values were calculated by non-linear regression of the concentration-response curve using GraphPad Prism 5.0 software, according to the Equation (2):Y = Ymin + (Ymax − Ymin)/(1 + [(X^HillSlope)/(IC50^HillSlope)])(2)

[3] = at 100 µM, read-out: BuChE (%) percentage of inhibition
[4] = read-out: BuChE (%) percentage of inhibition, at 100 µM

Sequence of AChE (electric eel) (O42275 24-633): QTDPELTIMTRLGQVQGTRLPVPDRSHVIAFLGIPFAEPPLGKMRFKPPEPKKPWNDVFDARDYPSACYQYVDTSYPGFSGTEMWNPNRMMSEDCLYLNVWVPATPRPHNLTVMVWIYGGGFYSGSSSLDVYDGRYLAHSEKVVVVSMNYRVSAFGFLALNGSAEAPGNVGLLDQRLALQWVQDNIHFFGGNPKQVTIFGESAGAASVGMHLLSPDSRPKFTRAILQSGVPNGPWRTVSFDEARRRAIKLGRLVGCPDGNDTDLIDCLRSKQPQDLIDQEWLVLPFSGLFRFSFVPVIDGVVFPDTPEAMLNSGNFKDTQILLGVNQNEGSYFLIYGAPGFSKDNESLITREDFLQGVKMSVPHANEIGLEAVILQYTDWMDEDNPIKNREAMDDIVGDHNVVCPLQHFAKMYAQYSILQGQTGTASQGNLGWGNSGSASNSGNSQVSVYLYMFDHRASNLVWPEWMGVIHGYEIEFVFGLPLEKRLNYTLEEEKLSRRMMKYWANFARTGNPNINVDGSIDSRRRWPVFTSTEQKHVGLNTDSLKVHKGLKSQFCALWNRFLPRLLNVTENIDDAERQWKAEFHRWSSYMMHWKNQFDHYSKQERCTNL
T1 sequence (P81908 whole entry): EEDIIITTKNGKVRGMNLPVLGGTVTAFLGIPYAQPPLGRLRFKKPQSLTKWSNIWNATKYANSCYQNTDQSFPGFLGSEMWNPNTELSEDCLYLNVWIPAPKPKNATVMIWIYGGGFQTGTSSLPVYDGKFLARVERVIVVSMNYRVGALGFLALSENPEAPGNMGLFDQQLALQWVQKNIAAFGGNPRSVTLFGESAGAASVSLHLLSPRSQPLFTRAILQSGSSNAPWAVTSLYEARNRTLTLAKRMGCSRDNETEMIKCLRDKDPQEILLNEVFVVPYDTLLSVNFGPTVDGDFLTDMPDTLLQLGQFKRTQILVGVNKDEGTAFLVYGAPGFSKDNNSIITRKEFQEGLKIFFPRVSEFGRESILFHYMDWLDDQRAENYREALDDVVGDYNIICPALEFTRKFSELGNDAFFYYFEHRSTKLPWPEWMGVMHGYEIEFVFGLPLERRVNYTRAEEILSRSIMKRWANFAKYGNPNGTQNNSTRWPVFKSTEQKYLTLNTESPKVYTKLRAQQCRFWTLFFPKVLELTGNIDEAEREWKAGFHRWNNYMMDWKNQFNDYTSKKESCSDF

CCOC(=O)Nc1ccc(C(=O)CCN2CCOCC2)cc1 [Compound 4, 4-(3-{4-[(ethoxycarbonyl)amino]phenyl}-3-oxopropyl)morpholin-4-ium chloride]
IC50 [1]: > 100 µM
inhibition at 100 µM ([1]; at 100 µM, mean ± SD (n = 5)): 16.1 ± 4.2%
inhibition at 100 µM [2, 3]: 17.8 ± 3.4%
IC50 [2]: > 100 µM

CCOC(=O)Nc1ccc(C(=O)CCN2CCCCC2)cc1 [Compound 2, 1-(3-{4-[(ethoxycarbonyl)amino]phenyl}-3-oxopropyl)piperidin-1-ium chloride]
IC50 [1]: 8.58 µM
inhibition at 100 µM ([1]; at 100 µM, mean ± SD (n = 5)): 77.8 ± 0.4%
inhibition at 100 µM [2, 3]: 15.7 ± 1.9%
IC50 [2]: > 100 µM

CCCCCN(C)CCC(=O)c1ccc(NC(=O)OCC)cc1.Cl [Compound 16, (3-{4-[(ethoxycarbonyl)amino]phenyl}-3-oxopropyl)(methyl)pentylazanium chloride]
IC50 [1]: > 100 µM
AChE (%) percentage of inhibition ([1]; at 100 µM, mean ± SD (n = 5)): 50.6 ± 1.8%
inhibition at 100 µM ([1]; at 100 µM, mean ± SD (n = 5)): > 50%
inhibition at 100 µM [2, 3]: 46.3 ± 2%
IC50 [2]: > 100 µM

CCOC(=O)Nc1ccc(C(=O)CCN(CC)CC)cc1 [Compound 6, (3-{4-[(ethoxycarbonyl)amino]phenyl}-3-oxopropyl)diethylazanium chloride]
IC50 [1]: > 100 µM
inhibition at 100 µM ([1]; at 100 µM, mean ± SD (n = 5)): 42.2 ± 4.3%
inhibition at 100 µM [2, 3]: 34.2 ± 2.6%
IC50 [2]: > 100 µM

CCN(C)C(=O)Oc1cccc([C@H](C)N(C)C)c1 [Rivastigmine, reference compound]
inhibition at 100 µM [1]: 54.8 ± 4.4%
inhibition at 100 µM [2, 3]: 72.9 ± 1.5%

CCCOC(=O)Nc1ccc(C(=O)CCN2CCCCC2)cc1 [Compound 3, 1-(3-oxo-3-{4-[(propoxycarbonyl)amino]phenyl}propyl)piperidin-1-ium chloride]
IC50 [1]: 6.57 µM
inhibition at 100 µM ([1]; at 100 µM, mean ± SD (n = 5)): 79.4 ± 0.3%
inhibition at 100 µM [2, 3]: 21 ± 2.5%
IC50 [2]: > 100 µM

CCCCN(CC)CCC(=O)c1ccc(NC(=O)OCCC)cc1.Cl [Compound 12, Butyl(ethyl)(3-{4-[(propoxycarbonyl)amino]phenyl}-3-oxopropyl)azanium chloride]
IC50 [1]: > 100 µM
inhibition at 100 µM ([1]; at 100 µM, mean ± SD (n = 5)): 38.4 ± 1.3%
BuChE (%) percentage of inhibition ([2]; at 100 µM): 51.1 ± 3.3%
IC50 [2]: > 100 µM
inhibition at 100 µM [2, 4]: > 50%

CCCN(C)CCC(=O)c1ccc(NC(=O)OC)cc1 [Compound 14, (3-{4-[(methoxycarbonyl)amino]phenyl}-3-oxopropyl)(methyl)propylazanium chloride]
IC50 [1]: > 100 µM
inhibition at 100 µM ([1]; at 100 µM, mean ± SD (n = 5)): 42.2 ± 1.3%
inhibition at 100 µM [2, 3]: 22.3 ± 4.6%
IC50 [2]: > 100 µM

CCCOC(=O)Nc1ccc(C(=O)CCN2CCOCC2)cc1 [Compound 5, 4-(3-oxo-3-{4-[(propoxycarbonyl)amino]phenyl}propyl)morpholin-4-ium chloride]
IC50 [1]: > 100 µM
inhibition at 100 µM ([1]; at 100 µM, mean ± SD (n = 5)): 25.9 ± 3.2%
inhibition at 100 µM [2, 3]: 14.4 ± 2.4%
IC50 [2]: > 100 µM

CCCCN(CC)CCC(=O)c1ccc(NC(=O)OC)cc1 [Compound 10, Butyl(ethyl)(3-{4-[(methoxycarbonyl)amino]phenyl}-3-oxopropyl)azanium chloride]
IC50 [1]: > 100 µM
inhibition at 100 µM ([1]; at 100 µM, mean ± SD (n = 5)): 23.6 ± 2.3%
inhibition at 100 µM [2, 3]: 43.6 ± 3%
IC50 [2]: > 100 µM

CCCN(C)CCC(=O)c1ccc(NC(=O)OCC)cc1 [Compound 15, (3-{4-[(ethoxycarbonyl)amino]phenyl}-3-oxopropyl)(methyl)propylazanium chloride]
IC50 [1]: > 100 µM
inhibition at 100 µM ([1]; at 100 µM, mean ± SD (n = 5)): 45.3 ± 3.4%
inhibition at 100 µM [2, 3]: 36.8 ± 2.1%
IC50 [2]: > 100 µM

COc1ccc2c3c1O[C@H]1C[C@@H](O)C=C[C@@]31CCN(C)C2 [Galantamine, reference compound]
inhibition at 100 µM [2, 3]: 62.1 ± 1.4%

CCCCN(C)CCC(=O)c1ccc(NC(=O)OCC)cc1 [Compound 8, Butyl(3-{4-[(ethoxycarbonyl)amino]phenyl}-3-oxopropyl)methylazanium chloride]
IC50 [1]: > 100 µM
inhibition at 100 µM ([1]; at 100 µM, mean ± SD (n = 5)): 23.5 ± 2.2%
inhibition at 100 µM [2, 3]: 4.7 ± 3%
IC50 [2]: > 100 µM

CCCCN(C)CCC(=O)c1ccc(NC(=O)OC)cc1 [Compound 7, Butyl(3-{4-[(methoxycarbonyl)amino]phenyl}-3-oxopropyl)methylazanium chloride]
IC50 [1]: > 100 µM
inhibition at 100 µM ([1]; at 100 µM, mean ± SD (n = 5)): 38 ± 4.2%
inhibition at 100 µM [2, 3]: 20.4 ± 5.8%
IC50 [2]: > 100 µM

COC(=O)Nc1ccc(C(=O)CCN2CCCCC2)cc1 [Compound 1, 1-(3-{4-[(methoxycarbonyl)amino]phenyl}-3-oxopropyl)piperidin-1-ium chloride]
IC50 [1]: 12.7 µM
inhibition at 100 µM ([1]; at 100 µM, mean ± SD (n = 5)): 74.1 ± 0.9%
inhibition at 100 µM [2, 3]: 10 ± 0.8%
IC50 [2]: > 100 µM

CCCCN(CC)CCC(=O)c1ccc(NC(=O)OCC)cc1.Cl [Compound 11, Butyl(3-{4-[(ethoxycarbonyl)amino]phenyl}-3-oxopropyl)ethylazanium chloride]
inhibition at 100 µM ([1]; at 100 µM, mean ± SD (n = 5)): 24.6 ± 1.9%
BuChE (%) percentage of inhibition ([2]; at 100 µM): 51.0 ± 2.9%
inhibition at 100 µM [2, 4]: > 50%

CCCCOC(=O)Nc1ccc(C(=O)CCN(CC)CCCC)cc1 [Compound 13, (3-{4-[(butoxycarbonyl)amino]phenyl}-3-oxopropyl)(butyl)ethylazanium chloride]
IC50 [1]: > 100 µM
inhibition at 100 µM ([1]; at 100 µM, mean ± SD (n = 5)): 33.5 ± 3.4%
inhibition at 100 µM [2, 3]: 48.7 ± 2.6%
IC50 [2]: > 100 µM

CCCCN(C)CCC(=O)c1ccc(NC(=O)OCCC)cc1 [Compound 9, Butyl(methyl)(3-oxo-3-{4-[(propoxycarbonyl)amino]phenyl}propyl)azanium chloride]
IC50 [1]: > 100 µM
inhibition at 100 µM ([1]; at 100 µM, mean ± SD (n = 5)): 44.5 ± 1.1%
inhibition at 100 µM [2, 3]: 29 ± 2.9%
IC50 [2]: > 100 µM

From PMC7180927, “Arylaminopropanone Derivatives as Potential Cholinesterase Inhibitors: Synthesis, Docking Study and Biological Evaluation” (Molecules, 2020)
